These results are taken from patent publication US20220008359A1, “COMBINATION ANTI-CANCER PRODUCTS AND METHODS” (priority 2020, published 2022).

In one assay the test system is H1975 cells. The experiment in a line: Trypan blue cell death assay, H1975 cells (wild type, afatinib- and osimertinib-resistant). In kind it is cell-based, human. The note with it: osimertinib-resistant H1975 and H1650 cells, 24 h.
For assay [1], the system named is CD56+ natural killer cells. In words: Viability and effects on CD56+ natural killer cells after 72 hours of exposure. Format: cell-based. As for the experimental part:
(§1) In vitro assays designed to assess the viability and effects of GZ17-6.02, GZ17-6.02.02, its metabolites as single agents, and the metabolites in combination effects of CD8+ T cells and CD56+ natural killer cells after 72 hours of exposure. Test agents used included 6.02 (77% Isovanillin+13% Harmine+10% Curcumin), 6.02.02 (77% Isovanillin+13% Harmine+8.5% Curcumin sulfate tetrabutylammonium salt+1.5% Curcumin β-D-glucuronide), Curcumin metabolites combination (85% Curcumin sulfate tetrabutylammonium salt+15% Curcumin β-D-glucuronide), Curcumin metabolites single agents (single agent Curcumin sulfate tetrabutylammonium salt, or single agent Curcumin 3-D-glucuronide).

The subject of another assay is CD8+ T cells. The experiment in a line: Viability and effects on CD8+ T cells after 72 hours of exposure. Format: cell-based. As for the experimental part:
as §1

Procedure for H1975 cells: Detection of cell death by trypan blue assay. Cells were treated with vehicle control or with drugs alone or in combination for 24 h. At the indicated time points cells were harvested by trypsinization and centrifugation. Cell pellets were resuspended in PBS and mixed with trypan blue agent. Viability was determined microscopically using a hemocytometer. Five hundred cells from randomly chosen fields were counted and the number of dead cells was counted and expressed as a percentage of the total number of cells counted.
H1650, wild type sensitive and afatinib resistant (AR) H1975 and erlotinib resistant (ER) HCC827 cells were treated with vehicle, erlotinib (500 nM), afatinib (500 nM), GZ17-6.02 (2 mM curcumin final) or the drugs in combination for 24 h. […] In a separate study, cells were treated with vehicle, osimertinib (100 nM), GZ17-6.02 (2 mM curcumin final) or the drugs in combination for 24 h.
Osimertinib-resistant H1975 and H1650 cells were generated as described and studied to determine if GZ17-6.02 interacts with pemetrexed to kill NSCLC cells. H1975 and H1650 cells (wild type sensitive and osimertinib resistant (OR)) were treated with vehicle, erlotinib (500 nM), afatinib (500 nM), osimertinib (100 nM), GZ17-6.02 (2 mM curcumin final) or the drugs in combination for 24 h. […]

With `C#Cc1cccc(Nc2ncnc3cc(OCCOC)c(OCCOC)cc23)c1` [erlotinib, Erlotinib], the “ability to enhance GZ17-6.02 killing” value in the assay with H1975 cells was “abolished”.
Regarding `C=CC(=O)Nc1cc(Nc2nccc(-c3cn(C)c4ccccc34)n2)c(OC)cc1N(C)CCN(C)C` [osimertinib, Osimertinib], the “ability to enhance GZ17-6.02 killing” value in the assay with H1975 cells was “abolished”.
As to “Curcumin sulfate tetrabutylammonium salt”, the “CD56 + NK Cells % of control” value in assay [1] (0.03 μM) is reported as 104.14 % of control; in assay [1] (0.3 μM), 103.40 % of control; in assay [1] (3 μM), 110.77 % of control; in assay [1] (30 μM) it was 107.76 % of control. For the same compound, the “CD8 + T Cells % of control” value was 107.62 % of control in the assay with CD8+ T cells (0.03 μM), 170.61 % of control in the assay with CD8+ T cells (0.3 μM), 154.26 % of control with CD8+ T cells (3 μM) and 143.23 % of control with CD8+ T cells (30 μM).
